Measurements from patent US20040006236A1, “Diaminopropionic acid derivatives” (priority 1999, published 2004).
Where a name gives a salt, the structure may show the parent alone. Read-outs that look alike come from different tables or passages of the source.

Tests used:
[1] = biological target: T1, LFA-1 binding to immobilized ICAM-1 (Homo sapiens, UniProt P05107+P20701); assay: LFA-1/ICAM-1 protein-protein assay (solid-phase ELISA); conditions: read-out: LFA-1/ICAM-1 Protein-Protein Assay IC50
T1 construct: made in house; host or cells: transfected 293 cells (LFA-1)
Protocol: (a) LFA-1/ICAM-1 screening test: LFA-1/ICAM-1 antagonist activity, defined as the ability of compounds of the invention to block LFA-1 binding to immobilized ICAM-1, was quantitated using a solid-phase ELISA.
(§1) Typically, fusion protein consisting of the entire extracellular domain of human ICAM-1 and the Fc domain of human IgG (5dICAM-Ig) was coated onto 96-well microtiter plates (0.15 μg in 100 μL PBS) overnight at 4° C. The plates were then blocked with 150 μL of 1% BSA/1 mM MnCl2/0.14 M NaCl/20 mM HEPES, pH 7.2 for 1 h at 37° C. and washed 3 times (150 μL each) with Wash Buffer (50 mM Tris, pH 7.4/100 mM NaCl/1 mM MnCl2/0.05% Tween 20). Stock solutions (100 μM in 100% DMSO) of test compounds were diluted 50 fold with 150 μL of Binding Buffer (0.05% BSA/0.05% Tween 20/1 mM MnCl2/0.14 M NaCl/20 mM HEPES, pH 7.2) plus 10% DMSO. […] Fifty μL per well of each dilution was added to the ICAM-1 coated plates, followed by 50 μL per well of membrane-bound LFA-1 (280 ng/mL in Binding Buffer) derived from transfected 293 cells. The plates were shaken vigorously for 1 min (room temperature) and gently for 2 h (37° C.). After incubation, the plates were washed 3 times (150 μL each) with Wash Buffer. Mouse anti-human integrin β2 monoclonal antibody was added (100 μL/well, 1 μg/mL in Binding Buffer) and allowed to incubate for 1 h (37° C.) with gentle agitation. The plates were then washed 3 times with Wash Buffer. HRP-conjugated goat anti-mouse IgG (100 μL/well, 1:1500 dilution in Binding Buffer) was added to each well, followed by incubation for 1 h (37° C.), and concluded by three washes (150 μL each) with Wash Buffer. TMB solution (100 μL per well) was added for color development (10 min). The reaction was stopped by the addition of 100 μL of 1 M H3PO4 to each well. The plates were then read at 450 nm. The inhibitory activities of test compounds were determined by the IC50s.
as §1, with “LFA-1/ICAM-1 antagonist activity, defined as the ability to block LFA-1 binding to immobilized ICAM-1, was quantitated using a solid-phase ELISA. Typically,” for “Typically,”, “(0.05 %” for “(0.05%”, “nm.” for “nm. The inhibitory activities of test compounds were determined by the IC50s.”

[2] = test system: T lymphocyte proliferation (C57BI/6 spleen cells with irradiated BALB/c spleen cells); assay: Mixed lymphocyte reaction (MLR), one-way; type: cell-based, mice; conditions: read-out: MLR IC50
From the text: Admixture of murine spleen cells from two different inbred strains of mice induces proliferation of T lymphocytes. The magnitude of T cell proliferation depends on the extent of disparity in the major histocompatibility antigens between the two strains. Splenic T lymphocytes from both strains proliferate due to alloantigen recognition, a process for which the interaction of ICAM-1 on antigen-presenting cells with LFA-1 on lymphocytes is necessary. The ability of antagonists to inhibit T lymphocyte proliferation following recognition of alloantigens was assessed in a one-way MLR, where cells from one strain were irradiated to permit measurement of the proliferative response of cells from the other strain. Spleen cells were washed three times in tissue culture medium (TCM; see below). […] One hundred microliters of serial dilutions of antagonists or TCM were added to the spleen cell mixture. The total volume in each well was 200 μL. TCM was RPMI1640 containing 10% heat-inactivated fetal bovine serum, […] L-glutamine, 100 Units/ml each of penicillin and streptomycin and 5×10^−5 M 2-mercaptoethanol. Dilutions of antagonists were prepared in TCM. Plates were incubated in 5% CO2 for 3 days. On the third day, 0.5 μCi of tritiated thymidine (10 μCi/mL) was added to all the wells. Cells were harvested 6 h later on a 96-well plate harvester and the amount of tritiated thymidine incorporated was assessed in a liquid scintillation counter.

T1 sequence (P20701 26-1170): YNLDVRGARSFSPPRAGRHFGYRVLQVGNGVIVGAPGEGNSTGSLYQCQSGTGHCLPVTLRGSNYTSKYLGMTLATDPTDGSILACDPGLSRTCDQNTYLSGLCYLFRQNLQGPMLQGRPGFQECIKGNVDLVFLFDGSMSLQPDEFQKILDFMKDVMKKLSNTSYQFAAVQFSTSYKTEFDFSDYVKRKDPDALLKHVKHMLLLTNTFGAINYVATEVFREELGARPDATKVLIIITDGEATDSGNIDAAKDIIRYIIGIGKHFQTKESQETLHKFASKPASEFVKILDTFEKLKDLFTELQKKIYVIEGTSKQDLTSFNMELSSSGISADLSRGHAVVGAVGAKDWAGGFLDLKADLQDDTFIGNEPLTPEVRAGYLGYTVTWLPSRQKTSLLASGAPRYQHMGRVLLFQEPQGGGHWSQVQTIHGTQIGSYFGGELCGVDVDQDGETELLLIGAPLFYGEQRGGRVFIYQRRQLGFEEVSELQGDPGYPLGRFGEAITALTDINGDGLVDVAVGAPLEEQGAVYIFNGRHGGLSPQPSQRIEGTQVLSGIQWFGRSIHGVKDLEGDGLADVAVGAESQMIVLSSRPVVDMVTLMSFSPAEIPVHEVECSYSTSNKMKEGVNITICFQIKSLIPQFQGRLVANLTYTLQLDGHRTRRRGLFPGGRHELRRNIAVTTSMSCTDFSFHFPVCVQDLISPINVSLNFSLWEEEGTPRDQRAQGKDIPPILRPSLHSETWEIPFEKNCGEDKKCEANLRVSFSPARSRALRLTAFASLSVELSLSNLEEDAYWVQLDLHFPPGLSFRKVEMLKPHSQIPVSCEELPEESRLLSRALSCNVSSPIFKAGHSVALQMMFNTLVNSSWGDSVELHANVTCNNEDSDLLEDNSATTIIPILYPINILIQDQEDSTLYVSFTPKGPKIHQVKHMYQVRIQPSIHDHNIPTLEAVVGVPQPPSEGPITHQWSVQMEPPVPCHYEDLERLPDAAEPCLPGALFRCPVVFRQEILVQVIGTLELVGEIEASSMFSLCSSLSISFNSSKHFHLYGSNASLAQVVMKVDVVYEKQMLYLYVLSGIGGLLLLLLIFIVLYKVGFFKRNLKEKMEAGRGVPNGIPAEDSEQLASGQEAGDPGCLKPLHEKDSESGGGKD
T1 sequence (P05107 23-769): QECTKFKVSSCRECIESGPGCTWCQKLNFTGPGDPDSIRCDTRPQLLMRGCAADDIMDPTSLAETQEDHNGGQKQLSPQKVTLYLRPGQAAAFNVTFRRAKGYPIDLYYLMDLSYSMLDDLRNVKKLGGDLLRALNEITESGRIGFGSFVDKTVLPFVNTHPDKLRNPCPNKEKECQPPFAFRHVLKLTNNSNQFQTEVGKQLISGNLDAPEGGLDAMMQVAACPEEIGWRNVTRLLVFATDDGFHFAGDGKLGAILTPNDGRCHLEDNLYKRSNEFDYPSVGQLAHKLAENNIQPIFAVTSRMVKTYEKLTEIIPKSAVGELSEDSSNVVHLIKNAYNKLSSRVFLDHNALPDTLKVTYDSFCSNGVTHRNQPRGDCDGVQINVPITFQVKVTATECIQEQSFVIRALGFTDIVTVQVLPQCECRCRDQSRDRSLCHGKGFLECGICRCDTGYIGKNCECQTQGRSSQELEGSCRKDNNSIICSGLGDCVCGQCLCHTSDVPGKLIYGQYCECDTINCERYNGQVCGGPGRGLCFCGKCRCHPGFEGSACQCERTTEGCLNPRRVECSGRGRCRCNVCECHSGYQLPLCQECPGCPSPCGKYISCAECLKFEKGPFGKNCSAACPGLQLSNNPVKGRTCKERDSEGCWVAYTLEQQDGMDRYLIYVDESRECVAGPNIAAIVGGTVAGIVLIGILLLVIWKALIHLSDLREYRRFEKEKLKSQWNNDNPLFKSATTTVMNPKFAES

Compound | IC50 [1] | IC50 ([2]; Mus musculus, T-lymphocyte) | IC50 ([2]; sodium salt)
COc1cc(C(=O)NC[C@H](NC(=O)c2ccc(C(=O)NCc3cccc(O)c3)cc2Cl)C(=O)O)nc2ccccc12 [Example 182] | 15 nM | – | –
O=C(Cc1ccccc1)NC[C@H](NC(=O)c1c(Cl)cccc1Cl)C(=O)O [Example 204] | 42 nM | – | –
O=C(Cc1ccc([N+](=O)[O-])cc1)NC[C@H](NC(=O)c1c(Cl)cccc1Cl)C(=O)O [Example 205] | 31 nM | – | –
O=C1CC[C@@H](C(=O)NC[C@H](NC(=O)c2c(Cl)cccc2Cl)C(=O)O)O1 [Example 208] | 23 nM | – | –
O=C(N[C@@H](CNC(=O)C1CC1)C(=O)O)c1c(Cl)cccc1Cl [Example 210] | 36 nM | – | –
O=C(N[C@@H](CNC(=O)C1CCC1)C(=O)O)c1c(Cl)cccc1Cl [Example 212] | 36 nM | – | –
O=C(N[C@@H](CNC(=O)C1CCCC1)C(=O)O)c1c(Cl)cccc1Cl [Example 213] | 31 nM | – | –
O=C(N[C@@H](CNC(=O)C1CCCCC1)C(=O)O)c1c(Cl)cccc1Cl [Example 215] | 35 nM | – | –
O=C(/C=C/c1cccs1)NC[C@H](NC(=O)c1c(Cl)cccc1Cl)C(=O)O [Example 218] | 33 nM | – | –
COc1cccc(C(=O)NC[C@H](NC(=O)c2c(Cl)cccc2Cl)C(=O)O)c1 [Example 221] | 24 nM | – | –
O=C(NC[C@H](NC(=O)c1c(Cl)cccc1Cl)C(=O)O)c1ccc2[nH]ccc2c1 [Example 225] | 31 nM | – | –
Cc1cccc(C(=O)NC[C@H](NC(=O)c2c(Cl)cccc2Cl)C(=O)O)n1 [Example 227] | 21 nM | 8550 nM | –
N[C@H](Cc1ccc(O)cc1)C(=O)NC[C@H](NC(=O)c1ccc(C(=O)NCc2cccc(O)c2)cc1Cl)C(=O)O [Example 274] | 4.4 nM | 3700 nM | –
N[C@H](CC(=O)O)C(=O)NC[C@H](NC(=O)c1ccc(C(=O)NCc2cccc(O)c2)cc1Cl)C(=O)O [Example 275] | 2.2 nM | 540 nM | –
Nc1cccc(C(=O)NC[C@H](NC(=O)c2ccc(C(=O)NCc3cccc(O)c3)cc2Cl)C(=O)O)c1 [Example 288] | 1.2 nM | 210 nM | –
N[C@@H](CO)C(=O)NC[C@H](NC(=O)c1ccc(C(=O)NCc2cccc(O)c2)cc1Cl)C(=O)O [Example 292] | 5.4 nM | 3650 nM | –
O=C(NCc1cccc(O)c1)c1ccc(C(=O)N[C@@H](CNC(=O)c2ccccc2)C(=O)O)c(Cl)c1 [Example 304, 3-benzoylamino-N-[2-chloro-4-[[[(3-hydroxyphenyl)methyl]amino]carbonyl]benzoyl]-L-alanine, sodium salt] | 1.1 nM | – | 270 nM
CCCCS(=O)(=O)NC[C@H](NC(=O)c1ccc(C(=O)N[C@H](C)c2cccc3ccccc23)cc1Cl)C(=O)O [Example 361, 3-(1-butanesulfonylamino)-N-[2-chloro-4-[[[(1R)-1-(1-naphthalenyl)ethyl]amino]carbonyl]benzoyl]-L-alanine] | 42 nM | 21500 nM | –
Nc1cccc(C(=O)NCc2ccc(C(=O)N[C@@H](CNC(=O)c3ccccc3)C(=O)O)c(Cl)c2)c1 [Example 367] | 41 nM | 17000 nM | –
O=C(NCc1ccc(C(=O)N[C@@H](CNC(=O)c2ccccc2)C(=O)O)c(Cl)c1)c1cnc2ccccc2c1 [Example 370] | 40 nM | 11000 nM | –
